# Earlier results in US8680055B2, “Methods for decreasing steroidogenesis in prostate cancer cells” (University of Southern California, priority 2009, dated 2014).
# Columns and labels:
# advanced CRPC = conditions: phase II trials
# [1] = tested on: PCa resistant to multiple hormonal therapies; conditions: chemotherapy-naive men
Compound,median duration of response (advanced CRPC),response rate by PSA working group (PSAWG) criteria (advanced CRPC),patients with declines in PSA ≧90% ([1]; 6 patients) [%],patients with declines in PSA ≧50% ([1]; 12 patients) [%],patients with declines in PSA ≧30% ([1]; 14 patients) [%]
CC(=O)N1CCN(c2ccc(OCC3COC(Cn4ccnc4)(c4ccc(Cl)cc4Cl)O3)cc2)CC1 (centres unmarked) [ketoconazole],up to 7 months,40-62%,,,
CC(=O)O[C@H]1CC[C@@]2(C)C(=CC[C@@H]3[C@@H]2CC[C@]2(C)C(c4cccnc4)=CC[C@@H]32)C1 [abiraterone acetate],,,29,57,66
